RP-LC retention time data for 79 compounds are collected here from the METLIN SMRT retention time set (Domingo-Almenara et al. 2019).

SMILES strings stand for the structures.

The data set is described as follows: gradient 5% acetonitrile 3 min, to 50% in 2 min, to 85% in 15 min, held 3 min, 100 µL/min. Particulars: column: Zorbax Extend-C18 2.1 x 50 mm; eluents: water / acetonitrile, 0.1% formic acid. In short, it runs like this: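 Each retention time is based on an adduct peak selected computationally and verified by manual inspection. Measurements used HPLC–quadrupole time-of-flight mass spectrometry in positive and negative ionization mode on mixtures of ~100 pure standards. Chromatography ran on a Zorbax Extend-C18 column (2.1 × 50 mm, 1.8 μm) at 100 μL/min with water and acetonitrile, each containing 0.1% formic acid, and dead and dwell volumes of 40 μL and 900 μL.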
Take `O=C(Cc1ccsc1)N1CCC(Nc2ncnc3c2CCC3)C1` (centres undefined): the RP-LC retention time came to 588 s.

For the compound `Cc1nn(CC(=O)NC(C)(C)C)c(C)c1S(=O)(=O)N1CCC(C(=O)N2CCC(C)CC2)CC1`, the RP-LC retention time was 794 s.

Consider `CCCCC(=O)N1CCN(c2nc(C)cc(NCC)n2)CC1`, for which the RP-LC retention time came out at 618 s.

Turning to `Cc1c(N2CCCC2)cc2c(c1NC(=O)c1ccccc1Cl)C(C)(C)CC2(C)C`, the RP-LC retention time was 874 s. The same measure for `CC(C)(C)c1ccc(O)c(NC(=O)c2cn(-c3ccc(S(=O)(=O)N4CCOCC4)cc3)cn2)c1`: 966 s; for `CNC(=O)c1cc(N2CCOCC2)nc2ccc(F)cc12`: 590 s.

Take `COC(=O)c1c(NCc2c(C)noc2C)c2ccccc2[nH]c1=O`: the RP-LC retention time was 661 s. As for `COc1ccc(OC)c(NC(=O)NCc2cccn2Cc2ccccc2)c1`, the RP-LC retention time is 927 s.

Turning to `O=C1COc2cc(Cl)ccc2N1Cc1nc(-c2ccc(F)c(Br)c2)no1`, the RP-LC retention time was determined as 1210 s.

The compound `Cc1ccc(Nc2c(-c3cc(Br)ccc3F)nc3cccc(C)n23)cc1` came in with an RP-LC retention time of 814 s. The same measure for `CCNC(=O)N1CCCC(c2cccc(C(=O)NCc3ccc(CC)cc3)c2)C1` (centres undefined): 908 s. Compound `CCCCNC(=O)C(C)n1nc(C)c2c(C)n(-c3ccccc3)nc2c1=O` (centres undefined) came in with an RP-LC retention time of 787 s.

In turn, `Cc1cccc(-c2ncccc2CNS(=O)(=O)c2ccccc2)c1` returned an RP-LC retention time of 677 s. Next, `CCOC(=O)c1[nH]c(C)c(CCC(=O)N2CCC(C(=O)NCCCN3CCCC3=O)CC2)c1C`: 626 s; `CCc1ccc(C(C)NS(=O)(=O)c2c(C)c(-c3nnc(C4CCC4)o3)n(C)c2C)cc1` (centres undefined): 1060 s; `COCC1CN(C)CC12CCN(Cc1cccc(OC)n1)CC2` (centres undefined): 567 s. The same measure for `COc1cc(C)c(C)cc1S(=O)(=O)Nc1cccc(-c2ccc(N3CCCC3)nn2)c1`: 607 s. `COc1cccc(N2CCN(S(=O)(=O)c3cccc(-c4nc(-c5ccccc5)no4)c3)CC2)c1` came in with an RP-LC retention time of 1290 s. Next, `c1ccc(-c2nnc(-c3ccncc3)o2)cc1`: 715 s.

The compound `COc1ccc(S(=O)(=O)c2ccc(NCc3cccc(OC)c3)nn2)cc1` came in with an RP-LC retention time of 860 s.

In turn, `Cn1c(N2CCCN(C(=O)c3ccc(Br)o3)CC2)cc(=O)n(C)c1=O` showed an RP-LC retention time of 653 s.

Regarding `COCCn1cnc2c(-c3ccccc3)cn(CC(=O)NC3CCCC3)c2c1=O`, the RP-LC retention time amounted to 837 s. Next, `O=C(Nc1cccc(F)c1)[C@@H]1OCCN(C2CC2)[C@H]1c1ccccc1`: 675 s. Next, `O=C([C@H]1C[C@@H](F)CN1S(=O)(=O)c1ccc(F)c(Cl)c1)N1CCOCC1`: 731 s; `Cn1nccc1C(=O)N1CCN(c2cc(-c3ccccc3)[nH]n2)CC1`: 671 s; `C=CCn1c(=O)c2ccccc2n(Cc2nc(-c3cccc(Br)c3)no2)c1=O`: 1140 s. Compound `COc1ccc(NC(=O)c2cn(-c3cc(N4CCCC4)ncn3)cn2)cc1OC` registered an RP-LC retention time of 748 s. The same measure for `CCCCN1C(SCC(=O)NCc2cccs2)=NS(=O)(=O)c2ccccc21`: 782 s; for `C=CCNC(=O)NC1CCN(C2=NS(=O)(=O)C(c3ccc(C)cc3)=C2C)CC1`: 736 s; for `COCCn1cc(C(=O)Nc2ccc(N(C)C)cc2)c2nn(-c3ccccc3)c(=O)c-2c1`: 710 s. `Cc1ccc2c(c1)N(S(C)(=O)=O)CCC(C(=O)Nc1cccc(Br)c1)O2` (centres undefined) showed an RP-LC retention time of 1060 s. On to `COCC(=O)N1CCCn2cc(-c3cccc(C#N)c3)nc21`, for which the RP-LC retention time stood at 675 s. The same measure for `NC(=O)Cc1cccc(C(=O)c2ccccc2)c1N`: 734 s. Take `CCn1cc(CN2CCC(C(=O)NC3CCCc4ccccc43)CC2)c2cc(OC)ccc21` (centres undefined): the RP-LC retention time came out at 760 s. Next, `O=C(NCCc1nc2ccccc2n1CC(=O)N1CCCC1)c1cccnc1`: 566 s; `O=C(CN1C(=O)CC(c2ccccc2)=Nc2ccccc21)NCc1ccccc1`: 919 s. The same measure for `CCOC(=O)c1c(S(=O)(=O)N2CCC(C(=O)NC3CCCCC3)CC2)c(C)n(C)c1C`: 828 s.

As to `CCN1CCCn2cc(S(=O)(=O)Nc3cc(C)cc(C)c3)cc2C1=O`, the RP-LC retention time came out at 768 s. The same measure for `COc1nccc(N2CCC(CC(=O)NCc3cccc(OC)c3OC)CC2)n1`: 607 s; for `O=C(Nc1ccc(SCC(=O)N2CCN(c3ccccc3)CC2)nn1)c1ccccc1`: 796 s. On to `O=C(Nc1cccc(F)c1)N1CCN(Cc2nc3ccc(Cl)cc3o2)CC1`, for which the RP-LC retention time worked out at 784 s. Next, `COCCCn1c(=O)c2ccccc2n(Cc2nc(-c3ccccc3C)no2)c1=O`: 1020 s; `Cc1cccc(C2(O)C(=O)N(Cc3nc(-c4ccccc4)oc3C)c3ccccc32)c1` (centres undefined): 1120 s; `Cc1cc2c(cc1S(=O)(=O)N1CCCC1C(=O)NCc1ccc(Cl)cc1)OCC(=O)N2` (centres undefined): 806 s. Next, `O=C(NC1CCN(Cc2ccccc2)CC1)C1CCCN(c2ncc(-c3cccc(F)c3)cn2)C1` (centres undefined): 753 s; `COc1ccc(OC)c2sc(N(Cc3ccco3)C(=O)Cc3cccs3)nc12`: 1050 s; `COCCNC(=O)c1nnn(-c2cccc(Cl)c2)c1-c1ccncc1`: 690 s. In the case of `CSc1nc(N2CCCC2)c2cnn(CCNC(=O)c3cc(-c4ccco4)on3)c2n1`, the RP-LC retention time came out at 849 s.

The compound `Cc1nc(-c2ccc(N3CCN(C(=O)COc4ccc(Cl)cc4)CC3)nc2)sc1C` gave an RP-LC retention time of 949 s. Next, `CCc1nc2ccc(-c3noc(-c4cccc(C#N)c4)n3)cc2n1CC`: 710 s.

With `Cc1cc(C)n(Cc2ccc(C(=O)N3CCC(c4noc(-c5cccnc5)n4)C3)o2)n1` (centres undefined), the RP-LC retention time worked out at 696 s. Next, `O=C(NCc1ccc2c(c1)OCO2)C1CCN(c2cncnc2N2CCCCC2)CC1`: 659 s; `COc1cc(-c2nc3ncccn3c2Nc2ccc(C)c(C)c2)ccc1O`: 683 s; `CCOc1ccccc1NC(=O)C1CCCN(c2nc3c(s2)c(C)nn3-c2ccccc2)C1` (centres undefined): 1300 s. Next, `O=c1c(Nc2ccc(F)c(Cl)c2)nc2ccncc2n1Cc1ccccc1`: 831 s; `O=C(Cn1c(=O)c2cccn2c2ccc(F)cc21)NCc1ccc(F)cc1`: 818 s; `Cc1cc(C)n(CCC(=O)NCC23CCCC=C2NC(=O)CC3)n1` (centres undefined): 621 s. For the compound `CCCn1cc(C(=O)NCc2ccccc2C)c(S(=O)(=O)N2CCC(C)CC2)n1`, the RP-LC retention time stood at 1110 s. For `COc1cccc(-c2nc3ccccc3n2CC(=O)N2CCC(C)CC2)c1`, the RP-LC retention time came to 668 s. The same measure for `Cc1cc2c(N3CCCC(C(=O)NCc4ccc(Br)cc4)C3)nccc2s1` (centres undefined): 702 s. Next, `Cc1ccccc1-c1noc(Cc2nnc(-c3ccc(F)cc3)o2)n1`: 1040 s; `CCc1nc2cc(N3CCC(C(=O)NCC4CCCO4)CC3)cnc2nc1CC` (centres undefined): 670 s; `O=C(c1ccncc1)N1CCc2c([nH]c3ccccc23)C1c1ccc(Cl)cc1` (centres undefined): 1000 s.

In turn, `COCc1noc([C@@H]2CN(C(=O)c3noc(C)c3COC)C[C@H]2C(N)=O)n1` displayed an RP-LC retention time of 625 s. The same measure for `O=C(CSc1ccc(N2CCCC(C(=O)NC3CC3)C2)nn1)Nc1cccc(F)c1` (centres undefined): 611 s; for `c1ccc(Nc2nc(-c3ccc4c(c3)OCO4)cs2)nc1`: 849 s; for `O=C(NCc1cccc(Cl)c1)C1CCN(c2nnc(-c3ccccc3)o2)CC1`: 865 s. In the case of `O=C(Nc1ccc(C(F)(F)F)cc1)NC1CCN(c2ccccc2)C1=O` (centres undefined), the RP-LC retention time stood at 912 s. `CCN1CCN(c2cc(C)c3cc(NC(=S)NCc4ccc5c(c4)OCO5)ccc3n2)CC1` showed an RP-LC retention time of 590 s.

As to `Cc1nc(-c2ccccc2)cc2nn(CC(=O)N3CCc4ccccc43)c(=O)n12`, the RP-LC retention time was 966 s.

Consider `O=C(c1ccco1)N1CCc2cc(-c3csc(C4CC4)n3)ccc21`, for which the RP-LC retention time amounted to 1070 s. The same measure for `Cc1cc(C(=O)NC2CCc3nnc(C)n3CC2)c(C)n1Cc1ccco1` (centres undefined): 643 s; for `COc1ccc(N2CCN(c3cc(SCC(=O)NCCC(C)C)ncn3)CC2)cc1`: 873 s.

With `Cc1cccc(-c2noc(Cn3ccn(-c4ccccc4C)c(=O)c3=O)n2)c1`, the RP-LC retention time worked out at 865 s. Next, `CCNC(=O)Nc1ccc2c(c1)CN(S(=O)(=O)C(C)C)CCO2`: 676 s; `COc1cccc(-c2noc(C3CCCN3C(=O)c3ccc(C)s3)n2)c1` (centres undefined): 997 s. The same measure for `COc1ccc(C2CC(=O)N(c3ccc(C(C)C)cc3)C(=O)C2)cc1OC`: 987 s; for `Cc1nn(-c2ccc(-c3ccccc3)nn2)c(C)c1S(=O)(=O)N1CCC(C)CC1`: 1160 s.

`CC(C)NC(=O)c1ccc(OCC2CCN(C(=O)c3ccc(F)c(F)c3)CC2)cc1` gave an RP-LC retention time of 873 s.
